Experimental data reported in patent US10287301B2 (Achillion Pharmaceuticals, Inc., priority 2015, dated 2019).

These molecules were tested against Human Factor D (Homo sapiens (Human), UniProt P00746) (assay: Human Factor D Assay). Details: not given.
Format: biochemical
How it was run: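 IC50 values derive from nonlinear regression of Factor D reaction rates against compound concentration. The enzyme, purified from human serum, is used at 80 nM final with a 5 min room-temperature compound preincubation in 50 mM Tris, 1M NaCl, pH 7.5, before 100 μM Z-L-Lys-SBzl plus 100 μM DTNB are added.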

Chain of Human Factor D (P00746 26-253): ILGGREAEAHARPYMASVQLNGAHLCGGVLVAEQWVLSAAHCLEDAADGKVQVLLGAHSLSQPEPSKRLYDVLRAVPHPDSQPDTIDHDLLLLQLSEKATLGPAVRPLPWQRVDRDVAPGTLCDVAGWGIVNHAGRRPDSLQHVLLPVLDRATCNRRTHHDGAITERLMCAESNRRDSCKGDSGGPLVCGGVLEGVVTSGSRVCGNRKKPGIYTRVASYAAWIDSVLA

Row | Compound | IC50 [nM]
1 | NC(=O)c1nn(CC(=O)N2C[C@H](F)C[C@H]2C(=O)Nc2ncc(I)cn2)c2ccc(-c3ccnnc3)cc12 [Compound 179, 1-(2-((2S,4R)-4-fluoro-2-(5-iodopyrimidin-2-ylcarbamoyl)pyrrolidin-1-yl)-2-oxoethyl)-5-(pyridazin-4-yl)-1H-indazole-3-carboxamide] | 1000 to 10000
2 | NC(=O)c1nn(CC(=O)N2C[C@H](F)C[C@H]2C(=O)Nc2cccnc2Cl)c2ccc(-c3ccnnc3)cc12 [Compound 185, 1-(2-((2S,4R)-2-(2-chloropyridin-3-ylcarbamoyl)-4-fluoropyrrolidin-1-yl)-2-oxoethyl)-5-(pyridazin-4-yl)-1H-indazole-3-carboxamide] | 1000 to 10000

Same assay, conditions: Human Factor D 80 nM, substrate Z-L-Lys-SBzl; read-out: IC50

Row | Compound | IC50 [nM]
3 | NC(=O)c1nn(CC(=O)N2C[C@H](F)C[C@H]2C(=O)Nc2nccc(Cl)n2)c2ccc(-c3ccnnc3)cc12 [Compound 178, 1-(2-((2S,4R)-2-(4-chloropyrimidin-2-ylcarbamoyl)-4-fluoropyrrolidin-1-yl)-2-oxoethyl)-5-(pyridazin-4-yl)-1H-indazole-3-carboxamide] | > 10000
4 | CC(=O)c1cn(CC(=O)N2C[C@H](F)C[C@H]2C(=O)Nc2nccc(Cl)n2)c2ccc(-c3ccnnc3)cc12 [Compound 180, (2S,4R)-1-(2-(3-acetyl-5-(pyridazin-4-yl)-1H-indol-1-yl)acetyl)-N-(4-chloropyrimidin-2-yl)-4-fluoropyrrolidine-2-carboxamide] | > 10000
5 | CC(=O)c1cn(CC(=O)N2C[C@H](F)C[C@H]2C(=O)Nc2ccccc2-c2nncn2C)c2ccc(-c3ccnnc3)cc12 [Compound 181, (2S,4R)-1-(2-(3-acetyl-5-(pyridazin-4-yl)-1H-indol-1-yl)acetyl)-4-fluoro-N-(2-(4-methyl-4H-1,2,4-triazol-3-yl)phenyl) pyrrolidine-2-carboxamide] | > 10000
6 | CC(=O)c1cn(CC(=O)N2C[C@H](F)C[C@H]2C(=O)Nc2noc(-c3ccccc3Cl)n2)c2ccc(-c3ccnnc3)cc12 [Compound 182, (2S,4R)-1-(2-(3-acetyl-5-(pyridazin-4-yl)-1H-indol-1-yl)acetyl)-N-(5-(2-chlorophenyl)-1,2,4-oxadiazol-3-yl)-4-fluoropyrrolidine-2-carboxamide] | < 1000
7 | CC(=O)c1cn(CC(=O)N2C[C@H](F)C[C@H]2C(=O)Nc2cccc(-c3ccccc3Cl)c2F)c2ccc(-c3cnc(O)nc3)cc12 [Compound 186, (2S,4R)-1-(2-(3-acetyl-5-(2-hydroxypyrimidin-5-yl)-1H-indol-1-yl)acetyl)-N-(2′-chloro-2-fluorobiphenyl-3-yl)-4-fluoropyrrolidine-2-carboxamide] | < 1000
8 | COCCNc1ncc(-c2ccc3c(c2)c(C(C)=O)cn3CC(=O)N2C[C@H](F)C[C@H]2C(=O)Nc2cccc(-c3ccccc3Cl)c2F)cn1 [Compound 187, (2S,4R)-1-(2-(3-acetyl-5-(2-(2-methoxyethylamino)pyrimidin-5-yl)-1H-indol-1-yl)acetyl)-N-(2′-chloro-2-fluorobiphenyl-3-yl)-4-fluoropyrrolidine-2-carboxamide] | < 1000
9 | CNc1ncc(-c2ccc3c(c2)c(C(C)=O)cn3CC(=O)N2C[C@H](F)C[C@H]2C(=O)Nc2cccc(-c3ccccc3Cl)c2F)cn1 [Compound 188, (2S,4R)-1-(2-(3-acetyl-5-(2-(methylamino)pyrimidin-5-yl)-1H-indol-1-yl)acetyl)-N-(2′-chloro-2-fluorobiphenyl-3-yl)-4-fluoropyrrolidine-2-carboxamide] | < 1000
10 | CC(=O)c1nn(CC(=O)N2[C@@H]3C[C@@H]3C[C@H]2C(=O)Nc2cccc(-c3ccccc3Cl)c2F)c2ccc(-c3cnc(C)nc3)cc12 [Compound 189, (1R,3S,5R)-2-(2-(3-acetyl-5-(2-methylpyrimidin-5-yl)-1H-indazol-1-yl)acetyl)-N-(2′-chloro-2-fluorobiphenyl-3-yl)-2-azabicyclo[3.1.0] hexane-3-carboxamide] | < 1000
11 | CC(=O)c1nn(CC(=O)N2[C@@H]3C[C@@H]3C[C@H]2C(=O)Nc2cccc(Br)n2)c2ccc(-c3cnc(C)nc3)cc12 [Compound 190, (1R,3S,5R)-2-(2-(3-acetyl-5-(2-methylpyrimidin-5-yl)-1H-indazol-1-yl)acetyl)-N-(6-bromopyridin-2-yl)-2-azabicyclo[3.1.0] hexane-3-carboxamide] | < 1000
12 | CC(=O)c1cn(CC(=O)N2C[C@H](F)C[C@H]2C(=O)Nc2cccc(-c3ccccc3Cl)c2F)c2ccc(-c3cnc(C(F)(F)F)nc3)cc12 [Compound 191, (2S,4R)-1-(2-(3-acetyl-5-(2-(trifluoromethyl)pyrimidin-5-yl)-1H-indol-1-yl)acetyl)-N-(2′-chloro-2-fluorobiphenyl-3-yl)-4-fluoropyrrolidine-2-carboxamide] | < 1000

Same assay, conditions: Human Factor D assay of Example 8; Table 2; read-out: IC50

Row | Compound | IC50 [nM]
13 | CC(=O)c1ccc(Cl)c(-c2cccc(NC(=O)[C@@H]3C[C@@H](F)CN3C(=O)Cn3nc(C(C)=O)c4cc(-c5cnc(C)nc5)ccc43)c2F)c1 [Compound 192, (2S,4R)-N-(5′-acetyl-2′-chloro-2-fluorobiphenyl-3-yl)-1-(2-(3-acetyl-5-(2-methylpyrimidin-5-yl)-1H-indazol-1-yl)acetyl)-4-fluoropyrrolidine-2-carboxamide] | < 1000
14 | CC(=O)c1cn(CC(=O)N2C[C@H](F)C[C@H]2C(=O)Nc2cccc(-c3ccccc3Cl)c2F)c2ccc(-c3cnc(NCC(F)(F)F)nc3)cc12 [Compound 193, (2S,4R)-1-(2-(3-acetyl-5-(2-(2,2,2-trifluoroethylamino)pyrimidin-5-yl)-1H-indol-1-yl)acetyl)-N-(2′-chloro-2-fluorobiphenyl-3-yl)-4-fluoropyrrolidine-2-carboxamide] | < 1000
15 | CCOc1ncc(-c2ccc3c(c2)c(C(C)=O)cn3CC(=O)N2C[C@H](F)C[C@H]2C(=O)Nc2cccc(-c3ccccc3Cl)c2F)cn1 [Compound 194, (2S,4R)-1-(2-(3-acetyl-5-(2-ethoxypyrimidin-5-yl)-1H-indol-1-yl)acetyl)-N-(2′-chloro-2-fluorobiphenyl-3-yl)-4-fluoropyrrolidine-2-carboxamide] | < 1000
16 | NC(=O)c1nn(CC(=O)N2C[C@H](F)C[C@H]2C(=O)Nc2cccnc2O)c2ccc(-c3ccnnc3)cc12 [Compound 196, 1-(2-((2S,4R)-4-fluoro-2-(2-hydroxypyridin-3-ylcarbamoyl)pyrrolidin-1-yl)-2-oxoethyl)-5-(pyridazin-4-yl)-1H-indazole-3-carboxamide] | > 10000
17 | CC(=O)c1cn(CC(=O)N2C[C@H](F)C[C@H]2C(=O)Nc2cccnc2O)c2ccc(-c3ccnnc3)cc12 [Compound 197] | > 10000
18 | CC(=O)c1nn(CC(=O)N2C[C@H](F)C[C@H]2C(=O)Nc2cccc(-c3cc(C(N)=O)ccc3Cl)c2F)c2ccc(-c3cnc(C)nc3)cc12 [Compound 198, (2S,4R)-1-(2-(3-acetyl-5-(2-methylpyrimidin-5-yl)-1H-indazol-1-yl)acetyl)-N-(5′-carbamoyl-2′-chloro-2-fluorobiphenyl-3-yl)-4-fluoropyrrolidine-2-carboxamide] | < 1000
19 | Cc1ncc(-c2ccc3c(c2)c(C(N)=O)nn3CC(=O)N2[C@@H]3C[C@@H]3C[C@H]2C(=O)Nc2cccc(Br)n2)cn1 [Compound 202, 1-(2-((1R,3S,5R)-3-(6-bromopyridin-2-ylcarbamoyl)-2-azabicyclo[3.1.0]hexan-2-yl)-2-oxoethyl)-5-(2-methylpyrimidin-5-yl)-1H-indazole-3-carboxamide] | < 1000
20 | COc1ncc(-c2ccc3c(c2)c(C(C)=O)cn3CC(=O)N2C[C@H](Cl)C[C@H]2C(=O)Nc2cccc(-c3ccccc3Cl)c2F)cn1 [Compound 203] | < 1000
21 | COC(=O)c1ncc(-c2ccc3c(c2)c(C(C)=O)cn3CC(=O)N2C[C@H](F)C[C@H]2C(=O)Nc2cccc(-c3ccccc3Cl)c2F)cn1 [Compound 204, methyl 5-(3-acetyl-1-(2-((2S,4R)-2-(2′-chloro-2-fluorobiphenyl-3-ylcarbamoyl)-4-fluoropyrrolidin-1-yl)-2-oxoethyl)-1H-indol-5-yl)pyrimidine-2-carboxylate] | < 1000
22 | CC(=O)c1cn(CC(=O)N2C[C@H](F)C[C@H]2C(=O)Nc2cccc(-c3ccccc3Cl)c2F)c2ccc(-c3cnc(C(=O)O)nc3)cc12 [Compound 205, 5-(3-acetyl-1-(2-((2S,4R)-2-(2′-chloro-2-fluorobiphenyl-3-ylcarbamoyl)-4-fluoropyrrolidin-1-yl)-2-oxoethyl)-1H-indol-5-yl)pyrimidine-2-carboxylic acid] | < 1000
23 | CC(=O)c1cn(CC(=O)N2C[C@H](F)C[C@H]2C(=O)Nc2cccc(-c3ccncc3Cl)c2F)c2ccc(-c3cnc(C)nc3)cc12 [Compound 206, (2S,4R)-1-(2-(3-acetyl-5-(2-methylpyrimidin-5-yl)-1H-indol-1-yl)acetyl)-N-(3-(3-chloropyridin-4-yl)-2-fluorophenyl)-4-fluoropyrrolidine-2-carboxamide] | < 1000
24 | CC(=O)c1cn(CC(=O)N2C[C@H](F)C[C@H]2C(=O)Nc2cccc(-c3ccccc3Cl)c2F)c2ccc(-c3cnc(C)c(Cl)c3)cc12 [Compound 207, (2S,4R)-1-(2-(3-acetyl-5-(5-chloro-6-methylpyridin-3-yl)-1H-indol-1-yl)acetyl)-N-(2′-chloro-2-fluorobiphenyl-3-yl)-4-fluoropyrrolidine-2-carboxamide] | < 1000
25 | NC(=O)c1nn(CC(=O)N2C[C@H](F)C[C@H]2C(=O)Nc2cccc(-c3ccccc3Cl)c2F)cc1-c1ccsc1 [Compound 208, 1-(2-((2S,4R)-2-(2′-chloro-2-fluorobiphenyl-3-ylcarbamoyl)-4-fluoropyrrolidin-1-yl)-2-oxoethyl)-4-(thiophen-3-yl)-1H-pyrazole-3-carboxamide] | 1000 to 10000
26 | CC(=O)c1cn(CC(=O)N2C[C@H](F)C[C@H]2C(=O)Nc2cccc(-c3ccccc3Cl)c2F)c2ccc(-c3cnc(C(N)=O)nc3)cc12 [Compound 209, 5-(3-acetyl-1-(2-((2S,4R)-2-(2′-chloro-2-fluorobiphenyl-3-ylcarbamoyl)-4-fluoropyrrolidin-1-yl)-2-oxoethyl)-1H-indol-5-yl)pyrimidine-2-carboxamide] | < 1000
